# Data taken from paper PMC11503492, “Activity-Based DNA-Encoded Library Screening for Selective Inhibitors of Eukaryotic Translation” (ACS Central Science, 2024).
# Entries after “also recorded” stand apart in the source; their conditions may differ.
# What was measured:
# [1] = test system: PCSK9 expression in HepG2 cells; test: HepG2 cellular assay, PCSK9 Western blot; assay type: cell-based; conditions: 16 h treatment, 5 or 50 µM, triplicate, normalized to DMSO
# Description: Reaction buffer (1 µL) and template (0.5 µL) were added and reaction progress was
# Relative activity was cal-
# 450 culated using the slope of fluorescence increase over time (15–30 min post reaction initia-
# Gene blocks were purchased from IDT
# Digestion with Sgf I and PmeI allowed for
# Sequence-verified plasmids
# 460 were cloned into DH5α E. coli for standard large-scale DNA plasmid preparation.
# Gene blocks were purchased
# Digestion with NdeI and XhoI
# 470 (4.5 g/L high-glucose DMEM, 2 mM L-glutamine, 10% fetal bovine serum, 1% penicillin-
# Cells were lysed (100 µL RIPA buffer,
# Protein lysates (24 µg) were separated by denaturing polyacrylamide
# 480 PCSK9 rabbit monoclonal antibody, 5% BSA in PBS-T). The PCSK9 probed membrane
# HRP-labeled bands were visualized
# Figure S12. […] PCSK9 expression in HepG2 cells
# treated 16 h with PF846 or screening hit 8 (5 or 50 µM) or vehicle control (DMSO) was analyzed in triplicate
# (also on this page, place not known: S12894 GAPDH pro m DMSO 5 μM DMSO μM 5 μM 50 μM PCSK9 PF846 hit8 50)
# (§1) (1 picture or pasted object on this page, not shown here)
# [2] = test system: PCSK9[1:33]-GFP in vitro transcription; test: PCSK9[1:33]-GFP T7 in vitro transcription reaction, agarose gel; assay type: biochemical; conditions: PCSK9[1:33]-GFP T7 transcription, 1.5% agarose gel
# Description: Figure S10. Activity of compounds 8 and 9 on transcription. (A) Screening hits 8 and 9 were analyzed in dose-response IVTT activity assays of PCSK9[1:33]-GFP initiated with DNA (black) and RNA (gray) template. (B) Products of PCSK9[1:33]-GFP T7 transcription reactions incubated with DMSO, screening hits 8 and 9, or PF846 were visualized on a 1.5% agarose gel
# as §1
SMILES,PCSK9 protein levels in HepG2 cells (in words) [1],effect on in vitro transcription product (in words) [2]
Cc1cccc2ccnc(N(C(=O)[C@H]3CCCN(C(=O)c4cccc5c(C#N)c[nH]c45)C3)[C@@H]3CCCNC3)c12 [Compound 8],significantly reduced; also recorded: lower levels of endogenous PCSK9,
Cc1cccc2ccnc(N(C(=O)C3CCN(C(=O)c4cccc5c(C#N)c[nH]c45)CC3)[C@@H]3CCCNC3)c12 [Compound 9],,no visible transcript product; also recorded: completely eliminates RNA yield; also recorded: nonselectively inhibits transcription
